Reference: patent US9451775B2, “Heterocyclic compounds as pesticides” (Bayer Intellectual Property GmbH, priority 2008, dated 2016)
Where two headings read alike, the source gives them in different places.

How the values were obtained:
[1] = system: green peach aphid (Myzus persicae); assay: Myzus test (spray treatment); assay type: in vivo; conditions: foliar, read-out: activity (effect in %, aphids killed)
Experimental: Myzus Test (Spray Treatment)
• Solvents: 78.0 parts by weight of acetone • 1.5 parts by weight of dimethylformamide • Emulsifier: 0.5 part by weight of alkylaryl polyglycol ether
To produce a suitable preparation of active compound, 1 part by weight of active compound is mixed with the stated amounts of solvents and emulsifier, and the concentrate is diluted with emulsifier-containing water to the desired concentration.
Discs of leaves of Chinese cabbage (Brassica pekinensis) which are heavily infested by all stages of the green peach aphid (Myzus persicae) are sprayed with an active compound preparation of the desired concentration.
After the desired period of time, the effect in % is determined. 100% means that all aphids have been killed; 0% means that none of the aphids have been killed.

[2] = logP determination by HPLC (formic acid method); assay type: physicochemical; conditions: reversed-phase HPLC column (C18), read-out: logP (HCOOH)
Experimental: 1) Description of the method for determining the logP values (formic acid method)
The logP values given in the table were determined in accordance with EEC Directive 79/831 Annex V.A8 by HPLC (High Performance Liquid Chromatography) on a reversed-phase column (C18). Temperature: 55° C.
Mobile phases for the determination in the acidic range (pH 3.4):
Mobile phase A: Acetonitrile+1 ml of formic acid/litre. Mobile phase B: water+0.9 ml of formic acid/litre.
Gradient: from 10% mobile phase A/90% mobile phase B to 95% mobile phase A/5% mobile phase B in 4.25 min.
Calibration was carried out using unbranched alkan-2-ones (having 3 to 16 carbon atoms) with known logP values (determination of the logP values by the retention times using linear interpolation between two successive alkanones). The lambda max values were determined in the maxima of the chromatographic signals using the UV spectra from 200 nm to 400 nm.

[3] = application rate of 500 g/ha, sprayed Chinese cabbage leaf discs
[4] = pH 3.4, HPLC on reversed-phase column (C18), acidic range (pH 3.4), 55° C.
[5] = pH 3.4, values printed in the text of the preparation examples, formic acid method

For `Cc1nc(-c2cccnc2)sc1-n1ccc(C(F)(F)F)n1` [Ex. No. 14], the pest or weed control at 500 g/ha [1, 3] was at least 80% and the chromatographic logP [2, 4] was 2.63.

`Cc1nc(-c2cccnc2)sc1-n1ccc(C(F)(F)C(F)(F)F)n1` [Ex. No. 140] showed a pest or weed control at 100 g/ha ([1]; application rate of 100 g/ha, sprayed Chinese cabbage leaf discs) of at least 80% and a chromatographic logP [2, 4] of 3.31.

For `Cc1nc(-c2cccnc2)sc1-c1ccnc(-c2ncccn2)n1` [Preparation Example 1, 4-(4-Methyl-2-pyridin-3-ylthiazol-5-yl)-[2,2′]bipyrimidinyl], the pest or weed control at 500 g/ha ([1]; in Brassica rapa) was at least 80%, the chromatographic logP [2, 4] was 1.17 and the chromatographic logP [2, 5] was 1.17.

Compound `Cc1nc(-c2cccnc2)sc1-c1ccn(-c2cnccn2)n1` [Preparation Example 2, 2-[3-(4-Methyl-2-pyridin-3-ylthiazol-5-yl)pyrazol-1-yl]pyrazine] has a pest or weed control at 500 g/ha [1, 3] of at least 80%, a chromatographic logP [2, 4] of 2.3 and a chromatographic logP [2, 5] of 2.3.

For `Cc1nc(-c2cccnc2)sc1-n1ccc(-c2ncccn2)n1` [Preparation Example 3, 2-[1-(4-Methyl-2-pyridin-3-ylthiazol-5-yl)-1H-pyrazol-3-yl]pyrimidine], the pest or weed control at 500 g/ha [1, 3] was at least 80%, the chromatographic logP [2, 4] was 1.48 and the chromatographic logP [2, 5] was 1.48.

Compound `Cc1nc(-c2cccnc2)sc1-c1cccc(-c2nccnn2)n1` [Preparation Example 4, 3-[6-(4-Methyl-2-pyridin-3-ylthiazol-5-yl)pyridin-2-yl]-[1,2,4]triazine] has a pest or weed control at 500 g/ha ([1]; in Brassica rapa) of at least 80%, a chromatographic logP [2, 4] of 1.58 and a chromatographic logP [2, 5] of 1.58.

Work on `c1cnc(-c2cccc(-c3cnc(-c4cccnc4)s3)n2)nc1` [Preparation Example 5, 2-[6-(2-Pyridin-3-ylthiazol-5-yl)pyridin-2-yl]pyrimidine] yielded a pest or weed control at 500 g/ha [1, 3] of at least 80%, a chromatographic logP [2, 4] of 1.53 and a chromatographic logP [2, 5] of 1.53.

With `Cc1nc(-c2cccnc2)sc1-c1cccc(-c2ncccn2)n1` [Preparation Example 6, 2-[6-(4-Methyl-2-pyridin-3-ylthiazol-5-yl)pyridin-2-yl]pyrimidine] the pest or weed control at 500 g/ha ([1]; in Brassica rapa) was at least 80%, the chromatographic logP [2, 4] was 1.73 and the chromatographic logP [2, 5] was 1.75.

`Cc1nc(-c2cccnc2)sc1C1=NN(c2ncccn2)CCO1` [Preparation Example 7, 2-(4-Methyl-2-pyridin-3-ylthiazol-5-yl)-4-pyrimidin-2-yl-5,6-dihydro-4H-[1,3,4]oxadiazine] showed a pest or weed control at 500 g/ha [1, 3] of at least 80%, a chromatographic logP [2, 4] of 1.56 and a chromatographic logP [2, 5] of 1.56.

In the case of `Cc1nc(-c2cccnc2)sc1-c1cccc(C2=NOCCO2)n1` [Preparation Example 8, 3-[6-(4-Methyl-2-pyridin-3-ylthiazol-5-yl)pyridin-2-yl]-5,6-dihydro-[1,4,2]dioxazine], the pest or weed control at 500 g/ha ([1]; in Brassica rapa) is reported as at least 80%, the chromatographic logP [2, 4] is reported as 1.82 and the chromatographic logP [2, 5] is reported as 1.81.

Compound `c1cnc(-c2nccc(-c3nnc(-c4cccnc4)s3)n2)nc1` [Preparation Example 9, 4-(5-Pyridin-3-yl-[1,3,4]thiadiazol-2-yl)-[2,2′]bipyrimidinyl] has a pest or weed control at 500 g/ha ([1]; in Brassica rapa) of at least 80%, a chromatographic logP [2, 4] of 1.07 and a chromatographic logP [2, 5] of 1.07.

For `c1cncc(-c2ncc(-c3cccc(-c4ncon4)n3)s2)c1` [compound 182], the chromatographic logP [2, 4] was 1.74.

`c1cncc(-c2ncc(-c3cccc(-c4nc[nH]n4)n3)s2)c1` [compound 183] gave a chromatographic logP [2, 4] of 1.24.

Compound `CS(=O)(=O)c1cccc(-c2cnc(-c3cccnc3)s2)n1` [compound 184] has a chromatographic logP [2, 4] of 1.44.

Compound `Cc1cc(-c2sc(-c3cncc(F)c3)nc2C)nc(-c2ncccn2)n1` [compound 185] has a chromatographic logP [2, 4] of 1.68.

With `Cc1nc(-c2cncc(F)c2)sc1-c1ccnc(-c2ncccn2)n1` [compound 186] the chromatographic logP [2, 4] was 1.63.

Work on `c1cncc(-c2ncc(-c3cccc(-n4cccn4)n3)s2)c1` [compound 187] yielded a chromatographic logP [2, 4] of 2.53.

In the case of `Cc1cnn(-c2cccc(-c3cnc(-c4cccnc4)s3)n2)c1` [compound 188], the chromatographic logP [2, 4] is reported as 3.08.

Compound `Cc1ccn(-c2cccc(-c3cnc(-c4cccnc4)s3)n2)n1` [compound 189] has a chromatographic logP [2, 4] of 2.85.

Work on `Cn1nc(-c2cccnc2)cc1-c1cccc(Br)n1` [compound 190] yielded a chromatographic logP [2, 4] of 1.67.

Compound `Cn1nc(-c2cccnc2)cc1-c1cccc(-c2ncccn2)n1` [compound 192] has a chromatographic logP [2, 4] of 1.12.

With `CNc1nccc(-c2sc(-c3cccnc3)nc2C)n1` [compound 193] the chromatographic logP [2, 4] was 1.41.

With `Cc1nc(-c2cccnc2)sc1-c1ccnc(N(C)C)n1` [compound 194] the chromatographic logP [2, 4] was 2.15.

`Cc1nc(-c2cccnc2)sc1-c1ccn(-c2nc(Cl)ns2)n1` [compound 195] showed a chromatographic logP [2, 4] of 3.76.

`COCCNC(=S)n1ccc(-c2sc(-c3cccnc3)nc2C)n1` [compound 196] showed a chromatographic logP [2, 4] of 3.01.

`Cc1cc(C)nc(-c2nc(-c3sc(-c4cccnc4)nc3C)cs2)n1` [compound 197] gave a chromatographic logP [2, 4] of 2.58.

For `c1cncc(-c2ncc(-c3cccc(-n4ccnc4)n3)s2)c1` [compound 199], the chromatographic logP [2, 4] was 0.93.

Compound `CN(C)c1cccc(-c2cnc(-c3cccnc3)s2)n1` [compound 200] has a chromatographic logP [2, 4] of 2.83.

Work on `Cc1nccn1-c1cccc(-c2cnc(-c3cccnc3)s2)n1` [compound 201] yielded a chromatographic logP [2, 4] of 0.89.

Work on `c1cncc(-c2ncc(-c3cccc(-n4cccc4)n3)s2)c1` [compound 202] yielded a chromatographic logP [2, 4] of 3.13.

`c1cncc(-c2ncc(-c3cccc(C4OCCCO4)n3)s2)c1` [compound 203] showed a chromatographic logP [2, 4] of 1.99.

With `O=C1CCCCN1c1cccc(-c2cnc(-c3cccnc3)s2)n1` [compound 204] the chromatographic logP [2, 4] was 1.87.

For `c1cncc(-c2ncc(-c3cccc(C4OCCO4)n3)s2)c1` [compound 205], the chromatographic logP [2, 4] was 1.82.

Compound `O=C1CCCN1c1cccc(-c2cnc(-c3cccnc3)s2)n1` [compound 206] has a chromatographic logP [2, 4] of 2.11.

`c1cncc(-c2ncc(-c3cnc(-c4cccnc4)s3)s2)c1` [compound 217] showed a chromatographic logP [2, 4] of 1.43.

`Cn1nc(-c2cccnc2)cc1-c1cccnc1` [compound 218] gave a chromatographic logP [2, 4] of 0.89.

Compound `Nc1cccc(-c2cnc(-c3cccnc3)s2)n1` [compound 219] has a chromatographic logP [2, 4] of 0.92.

Work on `CN(C)C(=O)c1cccc(-c2nnc(-c3cccnc3)s2)n1` [compound 221] yielded a chromatographic logP [2, 4] of 1.34.

For `CC(F)(F)c1ccc(-c2cnc(-c3cccnc3)s2)nc1` [compound 223], the chromatographic logP [2, 4] was 2.46.

In the case of `CC(F)(F)c1cccc(-c2cnc(-c3cccnc3)s2)n1` [compound 224], the chromatographic logP [2, 4] is reported as 2.77.

Compound `COC(OC)c1cccc(-c2cnc(-c3cccnc3)s2)n1` [compound 225] has a chromatographic logP [2, 4] of 2.08.

In the case of `Cn1nc(-c2cccnc2)cc1-c1cccnc1Cl` [compound 226], the chromatographic logP [2, 4] is reported as 0.98.

In the case of `Cn1nc(-c2cccnc2)cc1-c1cncc(C#N)c1` [compound 227], the chromatographic logP [2, 4] is reported as 0.89.

With `Cn1nc(-c2cccnc2)cc1-c1cncc(F)c1` [compound 228] the chromatographic logP [2, 4] was 0.89.

`CON(C)C(=O)c1csc(-c2sc(-c3cccnc3)nc2C)n1` [compound 229] gave a chromatographic logP [2, 4] of 1.78.

In the case of `Cc1nc(-c2cccnc2)sc1-c1nc(C(=O)NC(C)C2CC2)cs1` (stereo not shown) [compound 233], the chromatographic logP [2, 4] is reported as 2.69.

Work on `Cc1nc(-c2cccnc2)sc1-c1nc(C(=O)NC(C)(C)C)cs1` [compound 234] yielded a chromatographic logP [2, 4] of 2.93.

`Cc1nc(-c2cccnc2)sc1-c1nc(C(=O)NCC(F)(F)C(F)F)cs1` [compound 235] showed a chromatographic logP [2, 4] of 2.38.

In the case of `Cc1nc(-c2cccnc2)sc1-c1nc(C(=O)N2CCCCC2)cs1` [compound 236], the chromatographic logP [2, 4] is reported as 2.38.

In the case of `Cc1nc(-c2cccnc2)sc1-c1nc(C(=O)N2CCCC2)cs1` [compound 237], the chromatographic logP [2, 4] is reported as 2.05.

In the case of `Cc1nc(-c2cccnc2)sc1-c1nc(C(=O)N(C)CC(F)(F)F)cs1` [compound 238], the chromatographic logP [2, 4] is reported as 2.53.

With `O=C(NCC(F)(F)F)c1cccc(-c2nnc(-c3cccnc3)s2)n1` [compound 241] the chromatographic logP [2, 4] was 2.07.

In the case of `Cc1nc(-c2cccnc2)sc1-c1nc(C(=O)N2CCCO2)cs1` [compound 242], the chromatographic logP [2, 4] is reported as 1.61.

In the case of `Cc1nc(-c2cccnc2)sc1-c1nc(C(=O)N(C)C)cs1` [compound 243], the chromatographic logP [2, 4] is reported as 1.67.

With `COC(=O)c1cccc(-c2cnc(-c3cccnc3)s2)n1` [compound 244] the chromatographic logP [2, 4] was 1.77.

`CCOc1ccc(-c2cc(-c3cccnc3)nn2C)cn1` [compound 245] showed a chromatographic logP [2, 4] of 1.46.

With `COc1ccc(-c2cc(-c3cccnc3)nn2C)cn1` [compound 246] the chromatographic logP [2, 4] was 1.14.

With `Cc1nc(-c2cccnc2)sc1-c1nc(C(=O)N2CCOCC2)cs1` [compound 247] the chromatographic logP [2, 4] was 1.66.

Compound `CCN(C)C(=O)c1cccc(-c2nnc(-c3cccnc3)s2)n1` [compound 248] has a chromatographic logP [2, 4] of 1.54.

`CON(C)C(=O)c1cccc(-c2nnc(-c3cccnc3)s2)n1` [compound 249] gave a chromatographic logP [2, 4] of 1.29.

`O=C(c1cccc(-c2nnc(-c3cccnc3)s2)n1)N1CCOCC1` [compound 250] showed a chromatographic logP [2, 4] of 1.29.

With `Cn1nc(-c2cccnc2)cc1-c1cc[nH]n1` [drawing 82] the chromatographic logP [2, 5] was 0.42.
